The results in this text go back to ChEMBL document CHEMBL3351497, “Structure Activity Relationships of αv Integrin Antagonists for Pulmonary Fibrosis by Variation in Aryl Substituents” (ACS Med Chem Lett, 2014).

In data set [1] the target is T1, Integrin alpha-V/beta-6 (Homo sapiens, UniProt P06756+P18564). The experiment in a line: Inhibition of integrin alphavbeta6 (unknown origin)-mediated K562 cell adhesion to LAPb1 coated surface by fluorescence analysis. The format is cell-based.
Data set [2] concerns the target T1, Integrin alpha-V/beta-6. The experiment in a line: Inhibition of integrin alphavbeta6 (unknown origin) by Merck AG cell assay. The format is cell-based.
Data set [3] relates to K562. The experiment in a line: Selectivity ratio of IC50 for integrin alphavbeta6 (unknown origin)-mediated K562 cell adhesion to LAPb1 coated surface to IC50 for integrin alphavbeta5 (unknown origin)-mediated K562 cell adhesion to vitronectin coated surface. The format is cell-based. Particulars: Homo sapiens.
The target of data set [4] is T2, Integrin alpha-V/beta-3 (Homo sapiens, UniProt P05106+P06756). The experiment in a line: Inhibition of integrin alphavbeta3 (unknown origin)-mediated K562 cell adhesion to LAPb1 coated surface by fluorescence analysis. The format is cell-based.
In data set [5] the test system is K562. The experiment in a line: Selectivity ratio of IC50 for integrin alphavbeta6 (unknown origin)-mediated K562 cell adhesion to LAPb1 coated surface to IC50 for integrin alphavbeta3 (unknown origin)-mediated K562 cell adhesion to LAPb1 coated surface. The format is cell-based. The following applies: Homo sapiens.
In data set [6] the test system is K562. The experiment in a line: Selectivity ratio of IC50 for integrin alphavbeta8 (unknown origin)-mediated K562 cell adhesion to LAPb1 coated surface to IC50 for integrin alphavbeta3 (unknown origin)-mediated K562 cell adhesion to LAPb1 coated surface. The format is cell-based. The following applies: Homo sapiens.
A further data set concerns the target Integrin alpha-V/beta-5 (Homo sapiens, UniProt P06756+P18084). The experiment in a line: Inhibition of integrin alphavbeta5 (unknown origin)-mediated K562 cell adhesion to vitronectin coated surface by fluorescence analysis. Format: cell-based.
In data set [7] the test system is K562. The experiment in a line: Selectivity ratio of IC50 for integrin alphavbeta8 (unknown origin)-mediated K562 cell adhesion to LAPb1 coated surface to IC50 for integrin alphavbeta5 (unknown origin)-mediated K562 cell adhesion to vitronectin coated surface. The following applies: Homo sapiens. The format is cell-based.
The nature of data set [8]: Lipophilicity, log D of the compound by HPLC chromatographic method. The format is physicochemical.
The next data set concerns the target Integrin alpha-V/beta-8 (Homo sapiens, UniProt P06756+P26012). The experiment in a line: Inhibition of integrin alphavbeta8 (unknown origin)-mediated K562 cell adhesion to LAPb1 coated surface by fluorescence analysis. The format is cell-based.
The target in data set [9] is T2, Integrin alpha-V/beta-3. The experiment in a line: Inhibition of integrin alphavbeta3 (unknown origin) by Merck binding assay. Format: protein-complex assay.

T1 sequence (P06756 31-889 limits assumed): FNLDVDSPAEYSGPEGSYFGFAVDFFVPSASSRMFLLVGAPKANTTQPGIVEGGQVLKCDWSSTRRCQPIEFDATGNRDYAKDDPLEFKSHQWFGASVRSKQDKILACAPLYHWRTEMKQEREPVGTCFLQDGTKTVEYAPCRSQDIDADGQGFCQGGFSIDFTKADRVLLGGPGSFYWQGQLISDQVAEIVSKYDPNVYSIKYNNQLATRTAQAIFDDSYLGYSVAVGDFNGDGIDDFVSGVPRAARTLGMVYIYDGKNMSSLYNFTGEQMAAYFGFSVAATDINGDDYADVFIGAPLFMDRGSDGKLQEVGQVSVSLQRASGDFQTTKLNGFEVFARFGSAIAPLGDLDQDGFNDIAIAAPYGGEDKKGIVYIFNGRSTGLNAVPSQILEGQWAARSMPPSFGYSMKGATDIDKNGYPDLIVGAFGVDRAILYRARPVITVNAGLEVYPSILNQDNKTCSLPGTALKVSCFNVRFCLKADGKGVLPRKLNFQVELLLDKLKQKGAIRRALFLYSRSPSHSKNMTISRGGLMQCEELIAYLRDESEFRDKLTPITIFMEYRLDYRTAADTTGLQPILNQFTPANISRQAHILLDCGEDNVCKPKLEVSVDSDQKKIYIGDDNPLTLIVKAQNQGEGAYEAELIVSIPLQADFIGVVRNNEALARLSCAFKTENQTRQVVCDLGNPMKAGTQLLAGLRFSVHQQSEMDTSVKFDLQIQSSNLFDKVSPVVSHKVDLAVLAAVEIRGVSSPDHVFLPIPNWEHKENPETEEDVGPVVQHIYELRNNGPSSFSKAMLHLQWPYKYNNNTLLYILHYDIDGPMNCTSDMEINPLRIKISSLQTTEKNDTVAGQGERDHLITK
T1 sequence (P06756 891-1048 limits assumed): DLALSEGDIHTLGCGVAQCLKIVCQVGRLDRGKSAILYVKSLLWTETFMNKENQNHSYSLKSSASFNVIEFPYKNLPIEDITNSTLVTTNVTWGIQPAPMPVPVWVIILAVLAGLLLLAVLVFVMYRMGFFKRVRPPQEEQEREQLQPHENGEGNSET
T1 sequence (P18564 22-788 limits assumed): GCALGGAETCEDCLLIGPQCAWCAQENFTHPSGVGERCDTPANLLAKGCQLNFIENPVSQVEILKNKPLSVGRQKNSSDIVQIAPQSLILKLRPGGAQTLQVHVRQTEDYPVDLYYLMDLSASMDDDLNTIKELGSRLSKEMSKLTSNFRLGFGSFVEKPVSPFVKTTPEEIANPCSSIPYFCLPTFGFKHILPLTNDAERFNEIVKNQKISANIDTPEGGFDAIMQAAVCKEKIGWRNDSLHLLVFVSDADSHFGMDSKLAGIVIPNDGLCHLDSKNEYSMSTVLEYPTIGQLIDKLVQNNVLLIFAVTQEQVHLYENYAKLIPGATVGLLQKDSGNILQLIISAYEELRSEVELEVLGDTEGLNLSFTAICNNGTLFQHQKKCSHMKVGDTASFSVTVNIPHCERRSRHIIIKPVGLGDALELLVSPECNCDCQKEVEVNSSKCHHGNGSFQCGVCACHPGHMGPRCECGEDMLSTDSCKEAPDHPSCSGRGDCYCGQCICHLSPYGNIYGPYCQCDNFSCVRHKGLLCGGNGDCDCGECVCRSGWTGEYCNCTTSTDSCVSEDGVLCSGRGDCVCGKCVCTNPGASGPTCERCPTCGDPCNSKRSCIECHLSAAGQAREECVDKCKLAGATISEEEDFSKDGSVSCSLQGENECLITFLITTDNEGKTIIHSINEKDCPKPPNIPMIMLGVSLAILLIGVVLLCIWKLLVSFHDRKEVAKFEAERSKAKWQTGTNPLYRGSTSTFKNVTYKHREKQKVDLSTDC
Integrin alpha-V/beta-5, sequence (P06756 31-889 limits assumed): as the sequence (P06756 31-889 limits assumed) above
Integrin alpha-V/beta-5, sequence (P06756 891-1048 limits assumed): as the sequence (P06756 891-1048 limits assumed) above
Integrin alpha-V/beta-5, sequence (P18084 24-799 limits assumed): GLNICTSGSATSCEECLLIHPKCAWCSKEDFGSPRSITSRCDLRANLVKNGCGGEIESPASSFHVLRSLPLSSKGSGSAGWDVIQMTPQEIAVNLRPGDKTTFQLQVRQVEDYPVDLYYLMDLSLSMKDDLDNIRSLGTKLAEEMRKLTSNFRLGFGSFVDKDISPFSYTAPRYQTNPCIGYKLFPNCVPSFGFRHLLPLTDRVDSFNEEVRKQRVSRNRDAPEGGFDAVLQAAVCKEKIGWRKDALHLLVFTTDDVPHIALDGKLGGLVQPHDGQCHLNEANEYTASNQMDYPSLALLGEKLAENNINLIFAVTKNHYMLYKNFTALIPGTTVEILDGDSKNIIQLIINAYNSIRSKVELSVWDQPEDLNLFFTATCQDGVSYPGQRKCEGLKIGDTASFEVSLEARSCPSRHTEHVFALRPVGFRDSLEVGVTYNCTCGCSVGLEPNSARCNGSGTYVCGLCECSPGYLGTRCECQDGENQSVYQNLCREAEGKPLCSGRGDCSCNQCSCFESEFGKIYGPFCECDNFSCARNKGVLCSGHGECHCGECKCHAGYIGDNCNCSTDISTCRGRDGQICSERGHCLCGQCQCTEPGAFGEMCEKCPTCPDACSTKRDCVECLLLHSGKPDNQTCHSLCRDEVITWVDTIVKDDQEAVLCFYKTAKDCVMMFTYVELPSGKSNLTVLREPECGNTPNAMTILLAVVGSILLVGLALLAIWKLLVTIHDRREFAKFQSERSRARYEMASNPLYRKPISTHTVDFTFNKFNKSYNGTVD
Integrin alpha-V/beta-8, sequence (P06756 31-889 limits assumed): as the sequence (P06756 31-889 limits assumed) above
Integrin alpha-V/beta-8, sequence (P06756 891-1048 limits assumed): as the sequence (P06756 891-1048 limits assumed) above
Integrin alpha-V/beta-8, sequence (P26012 43-769 limits assumed): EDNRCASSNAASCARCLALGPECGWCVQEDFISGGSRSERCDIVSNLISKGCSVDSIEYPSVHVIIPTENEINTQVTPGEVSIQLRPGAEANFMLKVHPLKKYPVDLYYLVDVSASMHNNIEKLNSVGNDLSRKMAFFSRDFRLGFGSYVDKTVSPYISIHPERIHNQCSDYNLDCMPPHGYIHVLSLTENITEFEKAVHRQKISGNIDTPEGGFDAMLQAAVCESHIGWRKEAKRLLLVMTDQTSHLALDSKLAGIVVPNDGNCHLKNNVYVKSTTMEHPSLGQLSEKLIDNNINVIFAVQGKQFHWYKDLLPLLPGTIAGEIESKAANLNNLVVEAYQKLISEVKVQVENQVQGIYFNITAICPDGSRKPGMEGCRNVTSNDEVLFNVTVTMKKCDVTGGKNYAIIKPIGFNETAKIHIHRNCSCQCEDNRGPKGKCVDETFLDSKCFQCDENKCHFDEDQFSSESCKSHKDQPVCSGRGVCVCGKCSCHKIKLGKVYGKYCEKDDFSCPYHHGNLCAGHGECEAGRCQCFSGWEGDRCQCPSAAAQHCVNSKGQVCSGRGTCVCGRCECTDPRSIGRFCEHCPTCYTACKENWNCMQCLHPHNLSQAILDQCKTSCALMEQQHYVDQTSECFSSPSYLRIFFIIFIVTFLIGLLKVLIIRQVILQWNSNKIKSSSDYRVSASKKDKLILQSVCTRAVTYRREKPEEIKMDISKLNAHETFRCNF
T2 sequence (P05106 27-788 limits assumed): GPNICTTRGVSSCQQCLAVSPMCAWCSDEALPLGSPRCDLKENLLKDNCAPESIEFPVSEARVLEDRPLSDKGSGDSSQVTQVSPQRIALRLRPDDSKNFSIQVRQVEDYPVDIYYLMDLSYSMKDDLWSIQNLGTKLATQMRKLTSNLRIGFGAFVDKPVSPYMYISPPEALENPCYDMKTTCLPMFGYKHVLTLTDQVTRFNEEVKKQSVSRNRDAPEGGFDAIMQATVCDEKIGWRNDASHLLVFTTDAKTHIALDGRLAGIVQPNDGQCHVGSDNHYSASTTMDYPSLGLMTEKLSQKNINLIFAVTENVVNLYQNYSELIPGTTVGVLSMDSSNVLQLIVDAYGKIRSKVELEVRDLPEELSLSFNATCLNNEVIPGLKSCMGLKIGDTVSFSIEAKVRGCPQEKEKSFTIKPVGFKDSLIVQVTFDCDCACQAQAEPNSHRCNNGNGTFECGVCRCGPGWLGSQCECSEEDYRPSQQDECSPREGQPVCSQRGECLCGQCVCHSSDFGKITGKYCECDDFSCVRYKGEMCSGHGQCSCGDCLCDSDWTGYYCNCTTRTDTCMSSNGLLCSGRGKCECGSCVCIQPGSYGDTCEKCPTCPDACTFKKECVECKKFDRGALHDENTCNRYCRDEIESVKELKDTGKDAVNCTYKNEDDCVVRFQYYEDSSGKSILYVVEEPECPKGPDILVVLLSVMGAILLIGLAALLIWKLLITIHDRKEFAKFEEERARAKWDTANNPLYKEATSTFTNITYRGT
T2 sequence (P06756 31-889 limits assumed): as the sequence (P06756 31-889 limits assumed) above
T2 sequence (P06756 891-1048 limits assumed): as the sequence (P06756 891-1048 limits assumed) above

One may read the IC50 as the concentration that gives 50% inhibition. Turning to `O=C(O)C[C@H](NC(=O)C(COCc1ccccc1)NC(=O)CCCCNc1ccccn1)c1cc(Cl)cc(Cl)c1` (some centres undefined), the half-inhibitory concentration (IC50) on Integrin alpha-V/beta-6 [1] was 1000 nM; on Integrin alpha-V/beta-6 [2], 200 nM.
For orientation: chromatographic logD means a lipophilicity value derived from retention on a column. Higher therefore signals a more lipophilic compound. Regarding `O=C(O)CC(NC(=O)CCCCc1ccc2c(n1)NCCC2)c1ccccc1` (racemic), the Ratio IC50 with K562 [3], with K562 [5], in the data set with K562 [6] and in the data set on K562 [7] was 10 each time. Also, the IC50 on Integrin alpha-V/beta-3 [4] was 100 nM; against Integrin alpha-V/beta-5, 79.4 nM; against Integrin alpha-V/beta-6 [1], 2000 nM; on Integrin alpha-V/beta-8, 794 nM. In [8], this compound had a chromatographic logD of 1.56.
As to `O=C(O)CC(NC(=O)CCCCc1ccc2c(n1)NCCC2)c1cccc(F)c1` (racemic), the Ratio IC50 in the data set with K562 [3], in the data set on K562 [5], with K562 [6] and in the data set on K562 [7] was 10 each time. In addition, the half-maximal inhibitory concentration (IC50) on Integrin alpha-V/beta-3 [4] is 31.6 nM; at Integrin alpha-V/beta-5, 15.8 nM; at Integrin alpha-V/beta-3 [9], 23 nM; on Integrin alpha-V/beta-6 [1], 794 nM; against Integrin alpha-V/beta-8, 1580 nM. The same compound displayed a chromatographic logD in data set [8] of 1.92.
In the case of `COc1cccc(C(CC(=O)O)NC(=O)CCCCc2ccc3c(n2)NCCC3)c1` (racemic), the Ratio IC50 in the data set with K562 [3], in the data set with K562 [5], in the data set on K562 [6] and in the data set on K562 [7] was 10 in each case. The IC50 was 39.8 nM against Integrin alpha-V/beta-3 [4], 63.1 nM against Integrin alpha-V/beta-5, 316 nM on Integrin alpha-V/beta-6 [1] and 501 nM on Integrin alpha-V/beta-8. In data set [8], the chromatographic logD was 1.66.
With `COc1ccc(C(CC(=O)O)NC(=O)CCCCc2ccc3c(n2)NCCC3)cc1` (racemic), the Ratio IC50 with K562 [3], in the data set on K562 [5], with K562 [6] and with K562 [7] was 10 in each case. Besides, the IC50 against Integrin alpha-V/beta-3 [4] was 25.1 nM; at Integrin alpha-V/beta-5, 50.1 nM; at Integrin alpha-V/beta-6 [1], 501 nM; against Integrin alpha-V/beta-8, 501 nM. The chromatographic logD in data set [8] worked out at 1.64.
